From patent US12157885B2, “Methods of screening using barcoded libraries” (President and Fellows of Harvard College, priority 2016, dated 2024) come the findings set out here.

The experiment relates to library of barcoded yeast strains expressing toxic aggregation prone proteins, non-aggregation toxic proteins or benign control proteins. In words: Barcoded mixed pool growth competition of a yeast library under inducing conditions (galactose) with or without a small molecule, with barcodes quantified by next-generation sequencing. The class given is cell-based. The conditions noted are these: for rescue of growth of strains expressing toxic aggregation prone proteins (barcode representation relative to no drug condition): difference >3 standard deviations vs no drug highlighted. As for the experimental part:
Several experiments were conducted in which all members of the library were mixed at equal amounts and the library was grown under non-inducing conditions (glucose) or in the presence of galactose (inducing condition) with or without a small molecule of interest. After overnight outgrowth, genomic DNA was extracted from each of the experimental conditions and barcodes were quantified.
A library of barcoded yeast and their associated genes of interest were subjected to growth under inducing conditions in the presence or absence of small molecules. In FIG. 5A, Lovastatin at 2 ug/ml was added to the outgrowth media. In FIG. 5B, Celestrol at 1 ug/ml was added to the outgrowth media. Growth in the presence of drug was normalized to the without drug condition and plotted relative to the no drug condition. […] “416” and “426” refers to the plasmid background used to express each of the genes tested.
For growth competition experiments, yeast strains each with a unique DNA barcode along with containing a plasmid encoding a control or toxic protein of interest were first grown overnight to saturation in SC-URA+glucose. The various barcoded lines were then mixed in defined ratios and passaged at a 1:1000 dilution into fresh SC-URA+glucose or SC-URA+galactose media. For experiments involving small molecules, yeast were diluted into SC-URA+galactose media containing a given small molecule of interest and allowed to grow for 36 hours before genomic DNA was extracted from the population of cells.
Yeast lysis was performed as previously described. See Lõoke, M., Kristjuhan, K. & Kristjuhan, A. Extraction of genomic DNA from yeasts for PCR-based applications. BioTechniques 50, 325-328 (2011). Briefly, 300-900 ul of overnight culture was spun down and resuspended in 300 ul of 200 mM LiAc, 1% SDS solution. Cells were then vortexed several times and incubated at 70° C. for 10-15 minutes. 900 ul of >95% ethanol was then added to the samples and they were inverted several times along with vortexing to mix the solution well. The samples were then spun at 15,000 g for 3 minutes and the supernatant was discarded. Pellets were washed 1× with 70% ethanol, spun at 15,000 g for 3 minutes and the supernatant was again removed. The pellet was then allowed to air dry for 5-10 minutes before adding in 100 ul of 10 mM Tris pH 8.5 and pipetting up and down to break up the pellet. Samples were then placed in a heating block set to 37° C. for 10 minutes, spun again at 15,000 g for 3 minutes and then the supernatant was collected and used in downstream DNA analysis.
Genomic DNA was extracted and barcoded using one of four internally barcoded forward primers, […] NNNN CACAG […]; […] NNNN GTGTT […]; […] NNNN TCTTG […]; […] NNNN AGCTC […]; in combination with the reverse primer, […]aacgccgccatccagtttaaacgag. Following PCR, the amplicons were purified and normalized using SequalPrep Normalization Plate (96) kit (Thermo Fisher). A second round of PCR was next performed using the Illumina Truseq adapters in order to allow individual samples to be identified during subsequent data analysis. The reads were aligned to a list of the 96 possible barcodes (see Ho, C. H. et al. A molecular barcoded yeast ORF library enables mode-of-action analysis of bioactive compounds. Nat. Biotechnol. 27, 369-377 (2009) using BWA. The depth of coverage for each barcode was calculated for each of the samples using a custom script and normalized to the total number of reads per sample.

`CC[C@H](C)C(=O)O[C@H]1C[C@@H](C)C=C2C=C[C@H](C)[C@H](CC[C@@H]3C[C@@H](O)CC(=O)O3)[C@H]21` [Lovastatin]: where the note is “Lovastatin at 2 ug/ml in outgrowth media, FIG. 5A”, the “rescue of growth of strains expressing toxic aggregation prone proteins (barcode representation relative to no drug condition)” value is recorded as “showed an ability to rescue the growth of some of the toxic aggregation prone proteins”. Besides, for the setting “Lovastatin at 2 ug/ml, FIG. 5A”, the “change in growth of control strains expressing benign proteins (eYFP, mCherry)” value is “nor did control strains expressing benign proteins such as eYFP and mCherry exhibit a significant change in their growth”; the “rescue of strains expressing proteins that cause toxicity in yeast outside of protein aggregation” value is recorded as “none of the proteins that cause toxicity in yeast through alternative methods outside of protein aggregation showed significant rescue”.

Regarding `CC1=C(O)C(=O)C=C2C1=CC=C1[C@@]2(C)CC[C@@]2(C)[C@@H]3C[C@](C)(C(=O)O)CC[C@]3(C)CC[C@]12C` [Celestrol], under “Celestrol at 1 ug/ml in outgrowth media, FIG. 5B”, the “rescue of growth of strains expressing toxic aggregation prone proteins (barcode representation relative to no drug condition)” value is “showed an ability to rescue the growth of some of the toxic aggregation prone proteins”. Moreover, where the note is “Celestrol at 1 ug/ml, FIG. 5B”, the “change in growth of control strains expressing benign proteins (eYFP, mCherry)” value was “nor did control strains expressing benign proteins such as eYFP and mCherry exhibit a significant change in their growth”; the “rescue of strains expressing proteins that cause toxicity in yeast outside of protein aggregation” value was “none of the proteins that cause toxicity in yeast through alternative methods outside of protein aggregation showed significant rescue”.
